From US11932628B2, “Selective small molecule peptidomimetic melanocortin ligands” (REGENTS OF THE UNIVERSITY OF MINNESOTA, priority 2021, dated 2024)

How the values were obtained:
mMC3R = mMC3R (Mus musculus, UniProt P33033); experiment: cAMP based functional bioassay (CRE/β-galactosidase reporter), agonist activity at mMC3R
Procedure: (§1) The compounds were evaluated using a whole cell assay.
(§2) Compounds were dissolved in DMSO at a stock concentration of 10^−2 M and stored at −20° C. until assayed. HEK-293 cells stably expressing the selected melanocortin receptors were transiently transfected with 4 μg of CRE/β-galactosidase reporter gene. Briefly, 5000-15000 post transfection cells were plated into collagen treated 96-well plates (Nunc) and incubated overnight. […] The assay media was aspirated, and 50 μL of lysis buffer (250 mM Tris-HCl pH=8.0 and 0.1% Triton X-100) was added. The plates were stored at −80° C. overnight. The plates containing the cell lysates were thawed the following day. Aliquots of 10 μL were taken from each well and transferred to another 96-well plate for relative protein determination. To the cell lysate plates, 40 μL of phosphate-buffered saline with 0.5% BSA was added to each well. Subsequently, 150 μL of substrate buffer (60 mM sodium phosphate, 1 mM MgCl2, 10 mM KCl, 5 mM β-mercaptoethanol, 2 mg/mL ONPG) was added to each well and the plates were incubated at 37° C. The sample absorbance, OD405, was measured using a 96-well plate reader (Molecular Devices). The relative protein was determined by adding 200 μL of 1:5 dilution BioRad G250 protein dye:water to the 10 μL of cell lysate sample taken previously, and the OD595 was measured on a 96-well plate reader (Molecular Devices). Data points were normalized to forskolin and the relative protein content were used as positive controls. The EC50 values represent the mean of three or more independent experiments. The EC50 estimates, and their associated standard errors of the mean, were determined by fitting the data to a nonlinear least-squares analysis using the PRISM program (v4.0, GraphPad Inc.).
(§3) The results are tabulated in the form of EC50 values. In the case where the particular receptor was not activated to full activity at 100,000 nM, then the relative activity was reported.

mMC4R [1] = molecular target: T1, mMC4R (Mus musculus, UniProt P56450); experiment: Schild analysis of antagonist activity at mMC4R
Procedure: The antagonist activity may also be reported as a Ki value, which is the inverse Log of pA2. […] Compounds were dissolved in DMSO at a stock concentration of 10^−2 M and stored at −20° C. until assayed. HEK-293 cells stably expressing the selected melanocortin receptors were transiently transfected with 4 μg of CRE/β-galactosidase reporter gene. Briefly, 5000-15000 post transfection cells were plated into collagen treated 96-well plates (Nunc) and incubated overnight. […] The assay media was aspirated, and 50 μL of lysis buffer (250 mM Tris-HCl pH=8.0 and 0.1% Triton X-100) was added. The plates were stored at −80° C. overnight. The plates containing the cell lysates were thawed the following day. Aliquots of 10 μL were taken from each well and transferred to another 96-well plate for relative protein determination. To the cell lysate plates, 40 μL of phosphate-buffered saline with 0.5% BSA was added to each well. Subsequently, 150 μL of substrate buffer (60 mM sodium phosphate, 1 mM MgCl2, 10 mM KCl, 5 mM β-mercaptoethanol, 2 mg/mL ONPG) was added to each well and the plates were incubated at 37° C. The sample absorbance, OD405, was measured using a 96-well plate reader (Molecular Devices). The relative protein was determined by adding 200 μL of 1:5 dilution BioRad G250 protein dye:water to the 10 μL of cell lysate sample taken previously, and the OD595 was measured on a 96-well plate reader (Molecular Devices). Data points were normalized to forskolin and the relative protein content were used as positive controls. The EC50 values represent the mean of three or more independent experiments. The EC50 estimates, and their associated standard errors of the mean, were determined by fitting the data to a nonlinear least-squares analysis using the PRISM program (v4.0, GraphPad Inc.).
The reported values are on a log scale. In order to put them into perspective, their approximate binding disassociation constants, Ki values, can be calculated through the following relationship pA2=−Log10 (Ki).

mMC4R [2] = molecular target: T1, mMC4R; experiment: cAMP based functional bioassay (CRE/β-galactosidase reporter), agonist activity at mMC4R; design: Emax: dose or concentration left out as unconfirmed; details: for mMC4R Activity @ 10 μM (class) / mMC4R Activity @ 10 μM (relative activity, percent): reported where receptor not activated to full activity
Procedure: as §1, §2, §3

mMC1R = mMC1R (Mus musculus, UniProt Q01727); experiment: cAMP based functional bioassay (CRE/β-galactosidase reporter), agonist activity at mMC1R
Procedure: as §1, §2, §3

mMC5R = mMC5R (Mus musculus, UniProt P41149); experiment: cAMP based functional bioassay (CRE/β-galactosidase reporter), agonist activity at mMC5R
Chain of mMC5R (P41149 whole entry): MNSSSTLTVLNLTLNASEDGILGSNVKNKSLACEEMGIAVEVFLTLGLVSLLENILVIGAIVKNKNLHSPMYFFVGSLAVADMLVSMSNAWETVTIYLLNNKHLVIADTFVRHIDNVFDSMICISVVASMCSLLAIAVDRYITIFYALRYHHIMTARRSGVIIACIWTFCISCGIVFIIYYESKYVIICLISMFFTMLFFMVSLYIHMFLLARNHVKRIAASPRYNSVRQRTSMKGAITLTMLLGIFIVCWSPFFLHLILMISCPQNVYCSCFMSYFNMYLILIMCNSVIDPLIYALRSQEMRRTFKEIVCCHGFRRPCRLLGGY
Procedure: as §1, §2, §3

Chain of mMC1R (Q01727 whole entry): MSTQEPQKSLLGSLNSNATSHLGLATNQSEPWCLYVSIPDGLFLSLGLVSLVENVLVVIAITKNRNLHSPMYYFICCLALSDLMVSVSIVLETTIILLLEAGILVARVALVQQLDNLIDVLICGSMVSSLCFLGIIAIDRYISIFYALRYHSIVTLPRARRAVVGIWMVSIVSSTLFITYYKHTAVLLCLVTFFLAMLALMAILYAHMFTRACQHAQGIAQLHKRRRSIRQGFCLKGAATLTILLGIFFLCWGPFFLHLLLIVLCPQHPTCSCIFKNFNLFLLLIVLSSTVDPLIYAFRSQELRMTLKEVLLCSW
Chain of mMC3R (P33033 whole entry): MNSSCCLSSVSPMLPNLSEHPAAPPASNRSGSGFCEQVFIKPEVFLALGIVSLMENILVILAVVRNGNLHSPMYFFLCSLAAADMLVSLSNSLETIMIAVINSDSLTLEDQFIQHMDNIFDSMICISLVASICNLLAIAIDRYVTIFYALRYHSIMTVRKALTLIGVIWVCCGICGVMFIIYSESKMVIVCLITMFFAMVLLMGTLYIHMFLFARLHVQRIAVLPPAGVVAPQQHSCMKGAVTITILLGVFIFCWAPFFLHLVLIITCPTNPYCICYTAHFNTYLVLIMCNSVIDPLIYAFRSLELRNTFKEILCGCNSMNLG
T1 sequence (P56450 whole entry): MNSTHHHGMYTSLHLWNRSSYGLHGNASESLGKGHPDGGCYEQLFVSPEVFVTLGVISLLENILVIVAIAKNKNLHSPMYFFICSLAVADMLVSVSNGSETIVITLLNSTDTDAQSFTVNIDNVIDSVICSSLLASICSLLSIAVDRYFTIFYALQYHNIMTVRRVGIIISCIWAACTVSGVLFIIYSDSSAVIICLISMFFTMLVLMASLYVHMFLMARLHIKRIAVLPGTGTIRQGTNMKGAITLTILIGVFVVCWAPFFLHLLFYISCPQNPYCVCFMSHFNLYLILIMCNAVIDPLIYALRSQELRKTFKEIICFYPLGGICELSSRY

| EC50 (mMC3R) [µM] | EC50 values at the melanocortin-3 receptor (in words) (mMC3R) | Kb (mMC4R [1]) [µM] | Ki (mMC4R [1]) [µM] | mMC4R Antagonist pA2 (mMC4R [1]; Schild analysis) | Emax (mMC4R [2]; read-out: maximal activation at the melanocortin-4 receptor) [%] | mMC4R Activity @ 10 μM (class) (mMC4R [2]) | EC50 (mMC1R) [µM] | EC50 (mMC5R) [µM] | mMC4R Activity @ 10 μM (relative activity, percent) (mMC4R [2]) [%] | Structure (SMILES) |
| --- | --- | --- | --- | --- | --- | --- | --- | --- | --- | --- |
| 0.42 ± 0.12 | nanomolar | 0.316 | 0.32 | 6.5±0.5 | > 20 | A (A: <50%) | 0.6 ± 0.34 | 0.49 ± 0.155 | – | CC(C)[C@@H]1CNC(=N)N1C[C@@H]1CCCN1C[C@@H](Cc1ccccc1)N1C[C@@H]([C@@H](C)O)N(CC2CCC(C(C)(C)C)CC2)C1=N (stereo partly drawn) [TPI 2509-32, (R)-1-((S)-3-((4-(tert-butyl)cyclohexyl)methyl)-2-imino-1-((R)-1-((S)-2-(((R)-2-imino-5-isopropylimidazolidin-1-yl)methyl)pyrrolidin-1-yl)-3-phenylpropan-2-yl)imidazolidin-4-yl)ethanol] |
| 0.22 ± 0.03 | – | 1.26 | – | – | – | A (A: <50%) | 0.3 ± 0.12 | 0.15 ± 0.02 | 41 | CC(C)[C@@H]1CNC(=N)N1C[C@@H]1CCCN1C[C@@H](CC1CCCCC1)N1C[C@@H]([C@@H](C)O)N(CC2CCC(C(C)(C)C)CC2)C1=N (stereo partly drawn) [TPI 2509-23, (R)-1-((S)-3-((4-(tert-butyl)cyclohexyl)methyl)-1-((R)-1-cyclohexyl-3-((S)-2-(((R)-2-imino-5-isopropylimidazolidin-1-yl)methyl)pyrrolidin-1-yl)propan-2-yl)-2-iminoimidazolidin-4-yl)ethanol] |
| 0.37 ± 0.09 | – | 1.58 | – | – | – | A (A: <50%) | 0.2 ± 0.08 | 0.6 ± 0.21 | 49 | CC(C)[C@@H]1CNC(=N)N1C[C@@H]1CCCN1C[C@@H](CC1CCCCC1)N1C[C@@H]([C@@H](C)O)N(CC23CC4CC(CC(C4)C2)C3)C1=N [TPI 2509-22, (R)-1-((S)-3-(adamantan-1-ylmethyl)-1-((R)-1-cyclohexyl-3-((S)-2-(((R)-2-imino-5-isopropylimidazolidin-1-yl)methyl)pyrrolidin-1-yl)propan-2-yl)-2-iminoimidazolidin-4-yl)ethanol] |
| 0.36 ± 0.01 | – | 1.58 | – | – | – | – | 0.44 ± 0.14 | 0.18 ± 0.09 | 50 | CC(C)[C@@H]1CNC(=N)N1C[C@@H]1CCCN1C[C@@H](Cc1ccccc1)N1C[C@@H]([C@@H](C)O)N(CC23CC4CC(CC(C4)C2)C3)C1=N [TPI 2509-31, (R)-1-((S)-3-(adamantan-1-ylmethyl)-2-imino-1-((R)-1-((S)-2-(((R)-2-imino-5-isopropylimidazolidin-1-yl)methyl)pyrrolidin-1-yl)-3-phenylpropan-2-yl)imidazolidin-4-yl)ethanol] |
